Data from patent publication US9212168B2 (priority 2011, dated 2015).

test system: HCV genotype 1a replicon; experiment: HCV genotype 1a replicon assay (NS3 protease activity readout); type: cell-based, hepatitis C virus; conditions: HCV genotype 1a replicon
In short: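 EC50 values came from a 4-parameter robust fit of fluorescence (ex 340, em 509 nm) produced by NS3-specific protease in lysates, assayed with 15 μM FRET substrate for 20 min at 37° C, after 48 or 72 hours of compound exposure (0.5% DMSO) of Huh7.5-derived APC89 genotype 1a replicon cells.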

Structure (SMILES) | Genotype 1a
COC(=O)NC(C(=O)N1C(C)CCC1c1nc(-c2ccc(-c3ccc(C(=O)Nc4ccc(N5CCN(C(=O)C6CC6(C)C)CC5C)nc4)cc3OC(F)(F)F)cc2)c[nH]1)C(C)C (centres unmarked) [Example 18-3] | C (C represents pEC50 between and 9 and about 10, (EC50 between 1 nM and 0.1 nM))
COC(=O)NC(C(=O)N1C[C@@H](OC)C[C@H]1c1nc(-c2ccc(-c3cc(Cl)c(NC(=O)c4ccc(N5CCN(C(=O)C(C)(C)CO)C[C@H]5C)nc4)cc3C(F)(F)F)cc2)c[nH]1)C1CCS(=O)(=O)CC1 (single isomer, unassigned) [Example 19-12] | D (D represents pEC50>10 (EC50<0.1 nM))
COC(=O)NC(C(=O)N1C[C@@H](OC)C[C@H]1c1nc(-c2ccc(-c3cc(Cl)c(NC(=O)c4ccc(N5CCN(C(=O)C(C)(C)C)C[C@H]5C)nc4)cc3C(F)(F)F)cc2)c[nH]1)C1CCS(=O)(=O)CC1 (single isomer, unassigned) [Example 19-18] | C (C represents pEC50 between and 9 and about 10, (EC50 between 1 nM and 0.1 nM))
COC(=O)N[C@H](C(=O)N1C[C@@H](C)C[C@H]1c1nc(-c2ccc(-c3cc(Cl)c(NC(=O)c4ccc(N5CCN(C(=O)C(C)(C)CO)C[C@H]5C)nc4)cc3C(F)(F)F)cc2)c[nH]1)C1CCCCC1 [Example 19-7] | B (B represents pEC50 between 8 and 9 (EC50 between 1 and 10 nM))
COC(=O)N[C@H](C(=O)N1C[C@@H](C)C[C@H]1c1nc(-c2ccc(-c3cc(F)c(C(=O)Nc4ccc(N5CCN(C(=O)[C@H]6CC6(C)C)C[C@H]5C)nc4)cc3OC(F)(F)F)cc2)c(Cl)[nH]1)C(C)C [Example 4-44] | D (D represents pEC50>10 (EC50<0.1 nM))
CNC(=O)N1CCC[C@@]1(C)C(=O)N1C[C@@H](C)N(c2ccc(NC(=O)c3ccc(-c4ccc(-c5c[nH]c([C@@H]6C[C@H](C)CN6C(=O)[C@@H](NC(=O)OC)C(C)C)n5)cc4)c(OC(F)(F)F)c3)cn2)C[C@@H]1C [Example 4-9] | D (D represents pEC50>10 (EC50<0.1 nM))
COC(=O)NC(C(=O)N1C[C@@H](C)C[C@H]1c1nc(-c2ccc(-c3c(F)cc(NC(=O)c4ccc(N5CCN(C(=O)C(C)(C)C)C[C@H]5C)nc4)cc3F)cc2)c[nH]1)C1CCCCC1 (some centres unmarked) [Example 21-4] | C (C represents pEC50 between and 9 and about 10, (EC50 between 1 nM and 0.1 nM))

same assay, conditions: Hepatitis C virus, read-out: Genotype 1a, HCV genotype 1a replicon

Structure (SMILES) | EC50
COC(=O)N[C@H](C(=O)N1C[C@@H](C)C[C@H]1c1nc(-c2ccc(-c3cc(Cl)c(NC(=O)c4ccc(N5CCN(C(=O)CC6CCOCC6)C[C@H]5C)nc4)cc3OC(F)(F)F)cc2)c[nH]1)C(C)C [Example 12-28] | < 0.1 nM
COC(=O)N[C@H](C(=O)N1C[C@@H](C)C[C@H]1c1nc(-c2ccc(-c3cc(F)c(NC(=O)c4ccc(N5CCN(C(=O)C(C)(C)CO)C[C@H]5C)nc4)cc3OC(F)(F)F)cc2)c[nH]1)[C@H](C)OC [Example 13-25] | 0.1 to 1 nM
COC(=O)N[C@H](C(=O)N1C[C@@H](C)C[C@H]1c1nc(-c2ccc(-c3cc(Cl)c(NC(=O)c4ccc(N5CCN(C(=O)C(C)(C)C)C[C@H]5C)nc4)cc3OC(F)(F)F)cc2)c[nH]1)[C@H](C)OC [Example 13-8] | < 0.1 nM
COC(=O)N[C@H](C(=O)N1C[C@@H]([S+](C)[O-])C[C@H]1c1nc(-c2ccc(-c3ccc(C(=O)Nc4ccc(N5CCN(C(=O)C6CC6(C)C)C[C@H]5C)nc4)cc3OC(F)(F)F)cc2)c[nH]1)C(C)C (some centres unmarked) [Example 6-18] | 0.1 to 1 nM
COC(=O)NC(C(=O)N1C[C@@H](C)C[C@H]1c1nc(-c2ccc(-c3ccc(C(=O)Nc4ccc(N5CCN(C(=O)C(C)(C)C)C[C@H]5C)nc4)c(Cl)c3OC(F)(F)F)cc2)c[nH]1)C1CCOCC1 (some centres unmarked) [Example 25-3] | 0.1 to 1 nM
COC(=O)N[C@H](C(=O)N1C[C@@H](S(C)(=O)=O)C[C@H]1c1nc(-c2ccc(-c3ccc(C(=O)Nc4ccc(N5CCN(C(=O)[C@H]6CC6(C)C)C[C@H]5C)nc4)cc3OC(F)(F)F)cc2)c[nH]1)C(C)C [Example 6-21] | 0.1 to 1 nM
COC(=O)N[C@H](C(=O)N1C[C@@H](N2CCOCC2)C[C@H]1c1nc(-c2ccc(-c3cc(Cl)c(NC(=O)c4ccc(N5CCN(C(=O)C(C)(C)C)C[C@H]5C)nc4)cc3OC(F)(F)F)cc2)c[nH]1)C(C)C [Example 15-5] | < 0.1 nM
